Data on 12 compounds can be found in publication PMC8269283 (ACS chemical neuroscience, 2018).

Read-outs that look alike come from different tables or passages of the source.

The target in assay [1] is T1, SERT (Rattus norvegicus, UniProt P31652). The assay is described as follows: transporter-mediated release in rat brain synaptosomes, SERT. It counts as biochemical.
In assay [2] the target is T2, DAT (Rattus norvegicus, UniProt P23977). The assay is described as follows: transporter-mediated release in rat brain synaptosomes, DAT. Particulars: for DAT vs SERT Selectivity: SERT EC50 ÷ DAT EC50. It counts as biochemical.
Assay [3] concerns NET. Particulars: read-out: IC50 reuptake inhibitor at NET; cited from earlier work.
Assay [4] relates to SERT. Conditions: read-out: IC50 reuptake inhibitor at SERT; cited from earlier work.
Assay [5] concerns NET. Particulars: read-out: IC50 reuptake inhibitor at NET; cited from earlier work. The source holds these as a separate data set.
Assay [6] relates to DAT. Particulars: read-out: IC50 reuptake inhibitor at DAT; cited from earlier work.
Assay [7] has as its system SERT. Particulars: read-out: IC50 reuptake inhibitor at SERT; cited from earlier work. This is another data set of the same source.
Assay [8] addresses T1, SERT. Particulars: cited from earlier work.
The target in assay [9] is T2, DAT. Conditions: cited from earlier work.
Assay [10] concerns the target NET (Rattus norvegicus, UniProt Q63380). Particulars: read-out: EC50 as NET releasing agent, previously reported; cited from earlier work.
Assay [11] has as its system SERT. Conditions: cited from earlier work.
The subject of assay [12] is DAT. Conditions: cited from earlier work.

T2 sequence (P23977 whole entry): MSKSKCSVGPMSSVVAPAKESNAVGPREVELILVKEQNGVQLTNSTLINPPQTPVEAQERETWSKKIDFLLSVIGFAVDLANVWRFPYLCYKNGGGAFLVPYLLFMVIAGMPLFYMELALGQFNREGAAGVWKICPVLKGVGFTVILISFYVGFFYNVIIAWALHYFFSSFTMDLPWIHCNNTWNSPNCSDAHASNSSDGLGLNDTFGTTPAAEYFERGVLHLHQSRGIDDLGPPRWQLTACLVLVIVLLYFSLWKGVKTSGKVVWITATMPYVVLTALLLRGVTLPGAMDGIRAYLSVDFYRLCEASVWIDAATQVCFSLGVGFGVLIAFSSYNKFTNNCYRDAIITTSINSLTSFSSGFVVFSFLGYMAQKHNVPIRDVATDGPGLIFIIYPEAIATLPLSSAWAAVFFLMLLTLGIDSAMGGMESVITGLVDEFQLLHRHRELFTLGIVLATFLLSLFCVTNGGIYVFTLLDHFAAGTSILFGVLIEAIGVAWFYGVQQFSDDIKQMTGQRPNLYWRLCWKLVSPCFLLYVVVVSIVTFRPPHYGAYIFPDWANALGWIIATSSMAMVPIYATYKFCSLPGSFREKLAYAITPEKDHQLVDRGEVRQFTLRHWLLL
T1 sequence (P31652 whole entry): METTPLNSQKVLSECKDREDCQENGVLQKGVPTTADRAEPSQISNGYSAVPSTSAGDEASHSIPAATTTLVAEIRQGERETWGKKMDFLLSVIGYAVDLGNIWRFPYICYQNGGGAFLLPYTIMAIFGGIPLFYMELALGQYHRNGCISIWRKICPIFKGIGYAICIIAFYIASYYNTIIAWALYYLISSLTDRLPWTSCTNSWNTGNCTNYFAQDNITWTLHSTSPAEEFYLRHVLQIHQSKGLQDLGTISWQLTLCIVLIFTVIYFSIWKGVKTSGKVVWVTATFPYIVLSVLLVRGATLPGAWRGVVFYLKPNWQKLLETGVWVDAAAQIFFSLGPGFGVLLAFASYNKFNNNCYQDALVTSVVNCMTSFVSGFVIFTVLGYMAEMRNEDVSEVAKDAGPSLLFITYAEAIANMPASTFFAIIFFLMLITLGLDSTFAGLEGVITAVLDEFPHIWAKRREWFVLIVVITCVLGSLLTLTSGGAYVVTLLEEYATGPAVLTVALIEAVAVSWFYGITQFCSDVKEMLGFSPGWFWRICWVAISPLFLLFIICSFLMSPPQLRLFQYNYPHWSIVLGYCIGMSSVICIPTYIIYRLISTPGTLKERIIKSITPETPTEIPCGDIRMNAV
Chain of NET (Rattus norvegicus, UniProt Q63380) (Q63380 1-617): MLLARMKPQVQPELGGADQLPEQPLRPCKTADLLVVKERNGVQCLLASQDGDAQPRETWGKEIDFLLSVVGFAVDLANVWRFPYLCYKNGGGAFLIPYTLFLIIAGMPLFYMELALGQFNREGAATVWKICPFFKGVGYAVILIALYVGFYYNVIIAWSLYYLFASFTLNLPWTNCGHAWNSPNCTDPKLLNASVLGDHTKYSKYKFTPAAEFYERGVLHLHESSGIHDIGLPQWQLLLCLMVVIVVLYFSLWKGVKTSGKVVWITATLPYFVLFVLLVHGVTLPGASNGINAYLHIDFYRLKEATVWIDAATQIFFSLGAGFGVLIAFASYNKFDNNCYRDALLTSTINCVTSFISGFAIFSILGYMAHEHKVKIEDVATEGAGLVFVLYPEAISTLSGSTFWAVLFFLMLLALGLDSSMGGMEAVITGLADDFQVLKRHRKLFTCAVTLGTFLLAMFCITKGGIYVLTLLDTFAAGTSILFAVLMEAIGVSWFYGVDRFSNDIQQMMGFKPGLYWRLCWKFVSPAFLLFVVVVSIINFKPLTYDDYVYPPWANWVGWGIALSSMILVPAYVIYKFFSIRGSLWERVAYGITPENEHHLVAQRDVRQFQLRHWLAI

Usually EC50 stands for the concentration that produces a half-maximal response. Turning to `CNC(C)C(=O)c1ccccc1Cl.Cl` (stereo not drawn) [2a, 1-(2-Chlorophenyl)-2-(methylamino)propan-1-one Hydrochloride], the EC50 turned out to be 2810 nM on SERT [1] and 179 nM on DAT [2]. In addition, the “DAT vs SERT Selectivity” value at DAT [2] (2-substituted series) is reported as 16.

`CNC(C)C(=O)c1cccc(C(F)(F)F)c1.Cl` (stereo not drawn) [3e, 2-(Methylamino)-1-(3-(trifluoromethyl)phenyl)propan-1-one Hydrochloride]: the EC50 came to 281 nM on SERT [1] and 714 nM on DAT [2]. Moreover, the “DAT vs SERT Selectivity” value at DAT [2] (3-substituted series) stood at 0.4.

As a reminder, the IC50 is the midpoint of a concentration-inhibition curve. For `CNC(C)C(=O)c1cccc(Br)c1.Cl` (stereo not drawn) [3b, 1-(3-Bromophenyl)-2-(methylamino)propan-1-one Hydrochloride], the IC50 in the assay on NET [3] is 158 nM; in the assay on SERT [4] it was 2000 nM. The EC50 at SERT [1] worked out at 136 nM; at DAT [2], 21 nM. In addition, the “DAT vs SERT Selectivity” value on DAT [2] (3-substituted series) turned out to be 6.

On to `CNC(C)C(=O)c1ccccc1C.Cl` (stereo not drawn) [2c, 2-(Methylamino)-1-(2-methylphenyl)propan-1-one Hydrochloride], for which the figures for the EC50 on SERT [1] and at DAT [2] were 490 nM and 81 nM, respectively. The “DAT vs SERT Selectivity” value at DAT [2] (2-substituted series) came to 6.

For the compound `CNC(C)C(=O)c1ccccc1Br.Cl` (stereo not drawn) [2b, 1-(2-Bromophenyl)-2-(methylamino)propan-1-one Hydrochloride], the EC50 at SERT [1] amounted to 2840 nM; at DAT [2], 650 nM. Further, at DAT [2] (2-substituted series), the “DAT vs SERT Selectivity” value came to 4.

Regarding `CNC(C)C(=O)c1cccc(C)c1.Cl` (stereo not drawn) [3c, 2-(Methylamino)-1-(3-methylphenyl)propan-1-one Hydrochloride], the results for the IC50 in the assay on NET [5], in the assay on DAT [6] and in the assay with SERT [7] were 270 nM, 2600 nM and 9500 nM, respectively. Moreover, the EC50 at SERT [1] was determined as 268 nM; at DAT [2], 28 nM. On DAT [2] (3-substituted series), the “DAT vs SERT Selectivity” value was found to be 10.

Turning to `CNC(C)C(=O)c1cccc(OC)c1.Cl` (stereo not drawn) [3d, 2-(Methylamino)-1-(3-methoxyphenyl)propan-1-one Hydrochloride], the EC50 is 683 nM on SERT [1] and 109 nM on DAT [2]. Moreover, the “DAT vs SERT Selectivity” value on DAT [2] (3-substituted series) was determined as 6.

For the compound `CNC(C)C(=O)c1ccc(C(F)(F)F)cc1` (stereo not drawn) [4e], the “SERT selectivity (SERT vs DAT) as a releasing agent” value on SERT [8] is 14 fold.

Consider `CNC(C)C(=O)c1ccccc1OC.Cl` (stereo not drawn) [2d, 1-(2-Methoxyphenyl)-2-(methylamino)propan-1-one Hydrochloride], for which the EC50 on SERT [1] is 7220 nM; on DAT [2] it was 920 nM. The “DAT vs SERT Selectivity” value at DAT [2] (2-substituted series) was 8.

Take `CNC(C)C(=O)c1cccc(Cl)c1` (stereo not drawn) [3a, 3-Chloromethcathinone]: the 50% effective concentration (EC50) on SERT [8] (read-out: EC50 as SERT releasing agent, previously reported) is 212 nM; at DAT [9] (read-out: EC50 as DAT releasing agent, previously reported), 29 nM; on NET [10] it was 40 nM. For the same compound, the “DAT vs SERT Selectivity” value at DAT [2] (3-substituted series) stood at 8.

For `CNC(C)C(=O)c1ccccc1C(F)(F)F` (stereo not drawn) [2-CF3 analog], the “less potent than 3e as a releasing agent at SERT” value in the assay with SERT [11] is recorded as > 10 fold. In addition, the “less potent than 3e as a releasing agent at DAT” value in the assay on DAT [12] was > 10 fold.

Consider `CNC(C)C(=O)c1ccccc1` (stereo not drawn) [compound 1, Methcathinone], for which the “selectivity for DAT vs SERT as a releasing agent” value on DAT [9] is reported as > 300 fold. Besides, the “DAT vs SERT Selectivity” value at DAT [2] (2-substituted series) is reported as 103; at DAT [2] (3-substituted series), 279.
